Data published in patent publication US20240215582A1, “METHODS OF CONTROLLING PLANT PATHOGENS” (Valent BioSciences LLC, priority 2022, published 2024).

Key:
[1] = test system: Botrytis cinerea; test: In vitro growth on cervinomycin-amended growth media; type: cell-based
[2] = test system: Zymoseptoria tritici; test: Host plant efficacy assay (wheat); type: in vivo
[3] = test system: Podosphaera xanthii; test: Host plant efficacy assay (cucumber); type: in vivo

Question: What does the source list for `COc1cc2oc3c(c(=O)c2cc1OC)C(=O)c1c(ccc2cc4c(c(O)c12)C(=O)N1CCOC1(C)C4)C3=O` (centres unmarked) [Cervinomycin A2, cervinomycin A2]?
Answer: % Control Botrytis cinerea ([1]; 0.004 ppm in growth media): 3%; % Control Botrytis cinerea ([1]; 0.016 ppm in growth media): 2%; % Control Botrytis cinerea ([1]; 0.063 ppm in growth media): 70%; % Control Botrytis cinerea ([1]; 0.25 ppm in growth media): 100%; % Control Botrytis cinerea ([1]; 1 ppm in growth media): 100%; % control Zymoseptoria tritici Wheat 3DAI ([2]; 11.3 ppm): 0 (0 (about 0%)); % control Zymoseptoria tritici Wheat 4DBI ([2]; 11.3 ppm): 0 (0 (about 0%)); % control Zymoseptoria tritici Wheat 3DAI ([2]; 45 ppm): 0 (0 (about 0%)); % control Zymoseptoria tritici Wheat 4DBI ([2]; 45 ppm): 0 (0 (about 0%)); % control Zymoseptoria tritici Wheat 3DAI ([2]; 180 ppm): 0 (0 (about 0%)); % control Zymoseptoria tritici Wheat 4DBI ([2]; 180 ppm): 0 (0 (about 0%)); % control Podosphaera xanthii Cucumber 1DBI ([3]; 11.3 ppm): 0 (0 (about 0%)); % control Podosphaera xanthii Cucumber 1DBI ([3]; 45 ppm): 0 (0 (about 0%)); % control Podosphaera xanthii Cucumber 1DBI ([3]; 180 ppm): 0 (0 (about 0%))
